Test system: Key Grass and Sedge Weeds as well as Grass Crops
Test: Post-emergent Test II herbicidal activity (Table 6)
Format: in vivo
Conditions: Triticum aestivum, post-emergence, 336 h, TRZSS (wheat), application rate 70 g ai/ha, read-out: Visual Growth Reduction (%) 14 Days After Application, TRZSS
How it was run: (§1)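 Foliar application at 187 L/ha to greenhouse-grown seedlings (first or second true leaf); subirrigation thereafter. Visual 0–100% injury at 14 d relative to untreated plants.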
In the case of `COC(=O)c1nc(-c2ccc(I)cc2)c(Cl)c(N)c1Cl` [Compound 96], the pest or weed control at 70 g/ha is reported as 60 to 74%.

Same assay, conditions: Triticum aestivum, post-emergence, 336 h, TRZSS (wheat), application rate 140 g ai/ha, read-out: Visual Growth Reduction (%) 14 Days After Application, TRZSS
Compound `COC(=O)c1nc(-c2ccc(I)cc2)c(Cl)c(N)c1Cl` [Compound 96] has a pest or weed control at 140 g/ha of 75 to 84%.

Same assay, conditions: post-emergence, 336 h, CYPES: yellow nutsedge (Cyperus esculentus), application rate 70 g ai/ha, read-out: Visual Growth Reduction (%) 14 Days After Application, CYPES
Compound `COC(=O)c1nc(-c2ccc(I)cc2)c(Cl)c(N)c1Cl` [Compound 96] has a pest or weed control at 70 g/ha of 95 to 100%.

Same assay, conditions: post-emergence, 336 h, CYPES: yellow nutsedge (Cyperus esculentus), application rate 140 g ai/ha, read-out: Visual Growth Reduction (%) 14 Days After Application, CYPES
`COC(=O)c1nc(-c2ccc(I)cc2)c(Cl)c(N)c1Cl` [Compound 96] gave a pest or weed control at 140 g/ha of 95 to 100%.

Same assay, conditions: post-emergence, 336 h, DIGSA: crabgrass (Digitaria sanguinalis), application rate 70 g ai/ha, read-out: Visual Growth Reduction (%) 14 Days After Application, DIGSA
Compound `COC(=O)c1nc(-c2ccc(I)cc2)c(Cl)c(N)c1Cl` [Compound 96] has a pest or weed control at 70 g/ha of 60 to 74%.

Same assay, conditions: post-emergence, 336 h, DIGSA: crabgrass (Digitaria sanguinalis), application rate 140 g ai/ha, read-out: Visual Growth Reduction (%) 14 Days After Application, DIGSA
With `COC(=O)c1nc(-c2ccc(I)cc2)c(Cl)c(N)c1Cl` [Compound 96] the pest or weed control at 140 g/ha was 75 to 84%.

Same assay, conditions: post-emergence, 336 h, ECHCG: barnyardgrass (Echinochloa crus-galli), application rate 70 g ai/ha, read-out: Visual Growth Reduction (%) 14 Days After Application, ECHCG
In the case of `COC(=O)c1nc(-c2ccc(I)cc2)c(Cl)c(N)c1Cl` [Compound 96], the pest or weed control at 70 g/ha is reported as 0 to 29%.

Same assay, conditions: post-emergence, 336 h, ECHCG: barnyardgrass (Echinochloa crus-galli), application rate 140 g ai/ha, read-out: Visual Growth Reduction (%) 14 Days After Application, ECHCG
With `COC(=O)c1nc(-c2ccc(I)cc2)c(Cl)c(N)c1Cl` [Compound 96] the pest or weed control at 140 g/ha was 60 to 74%.

Same assay, conditions: post-emergence, 336 h, ORYSA: rice (Oryza sativa), application rate 70 g ai/ha, read-out: Visual Growth Reduction (%) 14 Days After Application, ORYSA
`COC(=O)c1nc(-c2ccc(I)cc2)c(Cl)c(N)c1Cl` [Compound 96] gave a pest or weed control at 70 g/ha of 0 to 29%.

Same assay, conditions: post-emergence, 336 h, ORYSA: rice (Oryza sativa), application rate 140 g ai/ha, read-out: Visual Growth Reduction (%) 14 Days After Application, ORYSA
In the case of `COC(=O)c1nc(-c2ccc(I)cc2)c(Cl)c(N)c1Cl` [Compound 96], the pest or weed control at 140 g/ha is reported as 0 to 29%.

Same assay, conditions: post-emergence, 336 h, SETFA: giant foxtail (Setaria faberi), application rate 70 g ai/ha, read-out: Visual Growth Reduction (%) 14 Days After Application, SETFA
`COC(=O)c1nc(-c2ccc(I)cc2)c(Cl)c(N)c1Cl` [Compound 96] gave a pest or weed control at 70 g/ha of 60 to 74%.

Same assay, conditions: post-emergence, 336 h, SETFA: giant foxtail (Setaria faberi), application rate 140 g ai/ha, read-out: Visual Growth Reduction (%) 14 Days After Application, SETFA
Compound `COC(=O)c1nc(-c2ccc(I)cc2)c(Cl)c(N)c1Cl` [Compound 96] has a pest or weed control at 140 g/ha of 75 to 84%.

Same assay, conditions: post-emergence, 336 h, SORVU: grain sorghum (Sorghum vulgare), application rate 70 g ai/ha, read-out: Visual Growth Reduction (%) 14 Days After Application, SORVU
`COC(=O)c1nc(-c2ccc(I)cc2)c(Cl)c(N)c1Cl` [Compound 96] showed a pest or weed control at 70 g/ha of 85 to 94%.

Same assay, conditions: post-emergence, 336 h, SORVU: grain sorghum (Sorghum vulgare), application rate 140 g ai/ha, read-out: Visual Growth Reduction (%) 14 Days After Application, SORVU
In the case of `COC(=O)c1nc(-c2ccc(I)cc2)c(Cl)c(N)c1Cl` [Compound 96], the pest or weed control at 140 g/ha is reported as 85 to 94%.

Same assay, conditions: post-emergence, 336 h, ZEAMX: maize, corn (Zea mays), application rate 70 g ai/ha, read-out: Visual Growth Reduction (%) 14 Days After Application, ZEAMX
`COC(=O)c1nc(-c2ccc(I)cc2)c(Cl)c(N)c1Cl` [Compound 96] gave a pest or weed control at 70 g/ha of 75 to 84%.

Same assay, conditions: post-emergence, 336 h, ZEAMX: maize, corn (Zea mays), application rate 140 g ai/ha, read-out: Visual Growth Reduction (%) 14 Days After Application, ZEAMX
With `COC(=O)c1nc(-c2ccc(I)cc2)c(Cl)c(N)c1Cl` [Compound 96] the pest or weed control at 140 g/ha was 75 to 84%.

Test system: not given
Test: not given
Conditions: not given
In the case of `COC(=O)c1nc(-c2ccc(I)cc2)c(Cl)c(N)c1Cl` [Compound 96], the melting point is reported as 187.2 to 189.9 °C.

Test system: Key Broadleaf Weed and Crop Species
Test: Post-emergent Test II herbicidal activity (Table 5)
Format: in vivo
Conditions: post-emergence, 336 h; ABUTH: velvetleaf (Abutilon theophrasti); 70 g ai/ha; post-emergent; 14 days after application; read-out: Visual Growth Reduction (%) 14 Days After Application ABUTH
How it was run: as §1
In the case of `COC(=O)c1nc(-c2ccc(I)cc2)c(Cl)c(N)c1Cl` [Compound 96], the pest or weed control at 70 g/ha is reported as 95 to 100%.

Same assay, conditions: post-emergence, 336 h; ABUTH: velvetleaf (Abutilon theophrasti); 140 g ai/ha; post-emergent; 14 days after application; read-out: Visual Growth Reduction (%) 14 Days After Application ABUTH
`COC(=O)c1nc(-c2ccc(I)cc2)c(Cl)c(N)c1Cl` [Compound 96] showed a pest or weed control at 140 g/ha of 95 to 100%.

Same assay, conditions: post-emergence, 336 h; AMARE: redroot pigweed (Amaranthus retroflexus); 70 g ai/ha; post-emergent; 14 days after application; read-out: Visual Growth Reduction (%) 14 Days After Application AMARE
`COC(=O)c1nc(-c2ccc(I)cc2)c(Cl)c(N)c1Cl` [Compound 96] gave a pest or weed control at 70 g/ha of 85 to 94%.

Same assay, conditions: post-emergence, 336 h; AMARE: redroot pigweed (Amaranthus retroflexus); 140 g ai/ha; post-emergent; 14 days after application; read-out: Visual Growth Reduction (%) 14 Days After Application AMARE
`COC(=O)c1nc(-c2ccc(I)cc2)c(Cl)c(N)c1Cl` [Compound 96] showed a pest or weed control at 140 g/ha of 95 to 100%.

Same assay, conditions: post-emergence, 336 h; BRSNN: oilseed-rape, canola (Brassica napus); 70 g ai/ha; post-emergent; 14 days after application; read-out: Visual Growth Reduction (%) 14 Days After Application BRSNN
For `COC(=O)c1nc(-c2ccc(I)cc2)c(Cl)c(N)c1Cl` [Compound 96], the pest or weed control at 70 g/ha was 75 to 84%.

Same assay, conditions: post-emergence, 336 h; BRSNN: oilseed-rape, canola (Brassica napus); 140 g ai/ha; post-emergent; 14 days after application; read-out: Visual Growth Reduction (%) 14 Days After Application BRSNN
`COC(=O)c1nc(-c2ccc(I)cc2)c(Cl)c(N)c1Cl` [Compound 96] showed a pest or weed control at 140 g/ha of 85 to 94%.

Same assay, conditions: post-emergence, 336 h; CHEAL: lambsquarters (Chenopodium album); 70 g ai/ha; post-emergent; 14 days after application; read-out: Visual Growth Reduction (%) 14 Days After Application CHEAL
In the case of `COC(=O)c1nc(-c2ccc(I)cc2)c(Cl)c(N)c1Cl` [Compound 96], the pest or weed control at 70 g/ha is reported as 95 to 100%.

Same assay, conditions: post-emergence, 336 h; CHEAL: lambsquarters (Chenopodium album); 140 g ai/ha; post-emergent; 14 days after application; read-out: Visual Growth Reduction (%) 14 Days After Application CHEAL
Work on `COC(=O)c1nc(-c2ccc(I)cc2)c(Cl)c(N)c1Cl` [Compound 96] yielded a pest or weed control at 140 g/ha of 95 to 100%.

Same assay, conditions: post-emergence, 336 h; EPHHL: wild poinsettia (Euphorbia heterophylla); 70 g ai/ha; post-emergent; 14 days after application; read-out: Visual Growth Reduction (%) 14 Days After Application EPHHL
For `COC(=O)c1nc(-c2ccc(I)cc2)c(Cl)c(N)c1Cl` [Compound 96], the pest or weed control at 70 g/ha was 75 to 84%.

Same assay, conditions: post-emergence, 336 h; EPHHL: wild poinsettia (Euphorbia heterophylla); 140 g ai/ha; post-emergent; 14 days after application; read-out: Visual Growth Reduction (%) 14 Days After Application EPHHL
Work on `COC(=O)c1nc(-c2ccc(I)cc2)c(Cl)c(N)c1Cl` [Compound 96] yielded a pest or weed control at 140 g/ha of 45 to 59%.

Same assay, conditions: post-emergence, 336 h; HELAN: sunflower (Helianthus annuus); 70 g ai/ha; post-emergent; 14 days after application; read-out: Visual Growth Reduction (%) 14 Days After Application HELAN
Compound `COC(=O)c1nc(-c2ccc(I)cc2)c(Cl)c(N)c1Cl` [Compound 96] has a pest or weed control at 70 g/ha of 95 to 100%.

Same assay, conditions: post-emergence, 336 h; HELAN: sunflower (Helianthus annuus); 140 g ai/ha; post-emergent; 14 days after application; read-out: Visual Growth Reduction (%) 14 Days After Application HELAN
For `COC(=O)c1nc(-c2ccc(I)cc2)c(Cl)c(N)c1Cl` [Compound 96], the pest or weed control at 140 g/ha was 95 to 100%.

Same assay, conditions: post-emergence, 336 h; VIOTR: wild pansy (Viola tricolor); 70 g ai/ha; post-emergent; 14 days after application; read-out: Visual Growth Reduction (%) 14 Days After Application VIOTR
Compound `COC(=O)c1nc(-c2ccc(I)cc2)c(Cl)c(N)c1Cl` [Compound 96] has a pest or weed control at 70 g/ha of 0 to 29%.

Same assay, conditions: post-emergence, 336 h; VIOTR: wild pansy (Viola tricolor); 140 g ai/ha; post-emergent; 14 days after application; read-out: Visual Growth Reduction (%) 14 Days After Application VIOTR
For `COC(=O)c1nc(-c2ccc(I)cc2)c(Cl)c(N)c1Cl` [Compound 96], the pest or weed control at 140 g/ha was 0 to 29%.

— patent publication US9113629B2, “4-amino-6-(4-substituted-phenyl)-picolinates and 6-amino-2-(4-substituted-phenyl)-pyrimidine-4-carboxylates and their use as herbicides” (DOW AGROSCIENCES LLC, priority 2013, dated 2015)
